From ChEMBL document CHEMBL1123451, “Enol lactone inhibitors of serine proteases. The effect of regiochemistry on the inactivation behavior of phenyl-substituted (halomethylene)tetra- and -dihydrofuranones and (halomethylene)tetrahydropyranones toward alpha-chymotrypsin: stable acyl enzyme intermediate” (J Med Chem, 1986)

Legend:
[1] = Hydrolysis rate constant of the compound; assay type: ADME
[2] = target: T1, Chymotrypsinogen B (Homo sapiens, UniProt P17538); test: Binding constant alpha-chymotrypsin was determined by competitive inhibition assay with BTEE as substrate
[3] = Catalytic rate constant of the compound; assay type: ADME
[4] = target: T1, Chymotrypsinogen B; test: Binding constant alpha-chymotrypsin was determined by competitive inhibition assay with Suc-Ala-Ala-Pro-Phe-pNA as substrate

T1 sequence (P17538 34-164 limits assumed, other chains not shown): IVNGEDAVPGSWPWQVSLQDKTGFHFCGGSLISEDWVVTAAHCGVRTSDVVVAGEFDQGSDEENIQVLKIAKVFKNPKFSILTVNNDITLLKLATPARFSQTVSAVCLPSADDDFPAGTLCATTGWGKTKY
T1 sequence (P17538 167-263 limits assumed, other chains not shown): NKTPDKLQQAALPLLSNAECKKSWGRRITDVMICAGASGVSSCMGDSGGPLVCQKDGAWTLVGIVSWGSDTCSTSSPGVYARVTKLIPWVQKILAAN

Compound: C=C1CC(c2ccccc2)CC(=O)O1 (stereo not drawn)
- Kh [1]: 0.0015 min⁻¹

Compound: O=C1CCC(c2ccccc2)/C(=C\I)O1 (stereo not drawn)
- Ki [2]: 55 µM
- Kh [1]: 0.004 min⁻¹

Compound: O=C1CC(c2ccccc2)C/C(=C\I)O1 (stereo not drawn)
- Kh [1]: 0.0068 min⁻¹
- Kc [3]: 0.025 min⁻¹
- Ki [4]: 0.0053 µM

Compound: O=C1CC(c2ccccc2)/C(=C\I)O1 (stereo not drawn)
- Kh [1]: 0.0021 min⁻¹

Compound: O=C1C=C(c2ccccc2)/C(=C\I)O1
- Kh [1]: 0.0015 min⁻¹
